Measured values as given in PubChem BioAssay AID1963428 (Molecular Pharmacology Branch, DTP, NCI, 2024).
Where “and” joins values, the source holds several entries; their conditions need not be identical. Identical values can stand only once.

Test system: 171881-019-R-J1-PDC complex spheroid growth, % test/control
Experiment: Anticancer human tumor 171881-019-R-J1-PDC patient-derived invasive breast carcinoma cell line growth inhibition [Asc]
Details: for viability, T/C: stronger effect = lower value
Method in brief: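 Concentration series start at each agent's clinical Cmax, or at 10 microM when none is established, and drop in half-log steps; agents are applied alone or together to complex spheroids built with HUVEC and hMSC.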

[1] = curve of first compound, second compound 0.03 µM
[2] = curve of first compound, second compound 0.0949 µM
[3] = curve of first compound, second compound 0.3 µM
[4] = curve of first compound, second compound 0.949 µM
[5] = curve of first compound, second compound 3 µM
[6] = second compound 0.03 µM, first compound 0.0316 µM
[7] = second compound 0.03 µM, first compound 0.1 µM
[8] = second compound 0.03 µM, first compound 0.316 µM
[9] = second compound 0.03 µM, first compound 1 µM
[10] = second compound 0.03 µM, first compound 3.16 µM
[11] = second compound 0.03 µM, first compound 10 µM
[12] = second compound 0.0949 µM, first compound 0.0316 µM
[13] = second compound 0.0949 µM, first compound 0.1 µM
[14] = second compound 0.0949 µM, first compound 0.316 µM
[15] = second compound 0.0949 µM, first compound 1 µM
[16] = second compound 0.0949 µM, first compound 3.16 µM
[17] = second compound 0.0949 µM, first compound 10 µM
[18] = second compound 0.3 µM, first compound 0.0316 µM
[19] = second compound 0.3 µM, first compound 0.1 µM
[20] = second compound 0.3 µM, first compound 0.316 µM
[21] = second compound 0.3 µM, first compound 1 µM
[22] = second compound 0.3 µM, first compound 3.16 µM
[23] = second compound 0.3 µM, first compound 10 µM
[24] = second compound 0.949 µM, first compound 0.0316 µM
[25] = second compound 0.949 µM, first compound 0.1 µM
[26] = second compound 0.949 µM, first compound 0.316 µM
[27] = second compound 0.949 µM, first compound 1 µM
[28] = second compound 0.949 µM, first compound 3.16 µM
[29] = second compound 0.949 µM, first compound 10 µM
[30] = second compound 3 µM, first compound 0.0316 µM
[31] = second compound 3 µM, first compound 0.1 µM
[32] = second compound 3 µM, first compound 0.316 µM
[33] = second compound 3 µM, first compound 1 µM
[34] = second compound 3 µM, first compound 3.16 µM
[35] = second compound 3 µM, first compound 10 µM
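For viability, T/C in this document: spheroids exposed to compounds for 7 days.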

C#Cc1c(F)ccc2cc(O)cc(-c3ncc4c(N5CC6CCC(C5)N6)nc(OCC56CCCN5CC(F)C6)nc4c3F)c12 (configuration not stated) + CCN1C(C(=O)NC23CCC(C(=O)O)(CC2)CC3)C(c2cccc(Cl)c2F)C2(C(=O)Nc3cc(Cl)ccc32)C12CCCCC2
IC50 [1]: > 10 µM | IC50 [2]: > 10 µM | IC50 [3]: > 10 µM | IC50 [4]: > 10 µM | IC50 [5]: > 10 µM | viability, T/C [6]: 120% | viability, T/C [7]: 116% | viability, T/C [8]: 136% | viability, T/C [9]: 192% | viability, T/C [10]: 204% | viability, T/C [11]: 170% | viability, T/C [12]: 117% | viability, T/C [13]: 117% | viability, T/C [14]: 158% | viability, T/C [15]: 208% | viability, T/C [16]: 241% | viability, T/C [17]: 211% | viability, T/C [18]: 120% | viability, T/C [19]: 127% | viability, T/C [20]: 127% | viability, T/C [21]: 204% | viability, T/C [22]: 213% | viability, T/C [23]: 188% | viability, T/C [24]: 116% | viability, T/C [25]: 123% | viability, T/C [26]: 146% | viability, T/C [27]: 229% | viability, T/C [28]: 210% | viability, T/C [29]: 174% | viability, T/C [30]: 125% | viability, T/C [31]: 156% | viability, T/C [32]: 216% | viability, T/C [33]: 218% | viability, T/C [34]: 172% | viability, T/C [35]: 154%

C=CC(=O)N1CCN(c2nc(=O)n(-c3c(C)ccnc3C(C)C)c3nc(-c4c(O)cccc4F)c(F)cc23)C(C)C1 (configuration not stated) + CCN1C(C(=O)NC23CCC(C(=O)O)(CC2)CC3)C(c2cccc(Cl)c2F)C2(C(=O)Nc3cc(Cl)ccc32)C12CCCCC2
IC50 [1]: > 10 µM | IC50 [2]: > 10 µM | IC50 [3]: > 10 µM | IC50 [4]: > 10 µM | IC50 [5]: > 10 µM | viability, T/C [6]: 103% | viability, T/C [7]: 102% | viability, T/C [8]: 100% | viability, T/C [9]: 96.8% | viability, T/C [10]: 102% | viability, T/C [11]: 103% | viability, T/C [12]: 93.5% | viability, T/C [13]: 91.7% | viability, T/C [14]: 107% | viability, T/C [15]: 112% | viability, T/C [16]: 94.4% | viability, T/C [17]: 109% | viability, T/C [18]: 116% | viability, T/C [19]: 105% | viability, T/C [20]: 105% | viability, T/C [21]: 109% | viability, T/C [22]: 107% | viability, T/C [23]: 90.7% | viability, T/C [24]: 96.5% | viability, T/C [25]: 104% | viability, T/C [26]: 116% | viability, T/C [27]: 106% | viability, T/C [28]: 106% | viability, T/C [29]: 116% | viability, T/C [30]: 94.2% | viability, T/C [31]: 112% | viability, T/C [32]: 103% | viability, T/C [33]: 97% | viability, T/C [34]: 99.8% | viability, T/C [35]: 107%

COc1c(OCCCN2CCOCC2)ccc2c3n(c(=NC(=O)c4cnc(N)nc4)nc12)CCN3
viability, T/C (compound 0.00316 µM): 148% and 152% and 226% | viability, T/C (compound 0.01 µM): 115% and 134% and 153% | viability, T/C (compound 0.0316 µM): 50.5% and 46.9% and 61.2% | viability, T/C (compound 0.1 µM): 17.4% and 14.1% and 19.9% | viability, T/C (compound 0.316 µM): 3.09% and 3.26% and 4.21% | viability, T/C (compound 1 µM): 1.31% and 1.02% and 4.37% | IC50 (curve of compound): 0.0339 µM and 0.0309 µM and 0.0248 µM

O=C(c1cc(Cc2n[nH]c(=O)c3ccccc23)ccc1F)N1CCN(C(=O)C2CC2)CC1 + CCN1C(C(=O)NC23CCC(C(=O)O)(CC2)CC3)C(c2cccc(Cl)c2F)C2(C(=O)Nc3cc(Cl)ccc32)C12CCCCC2
IC50 [1]: > 10 µM | IC50 [2]: > 10 µM | IC50 [3]: > 10 µM | IC50 [4]: > 10 µM | IC50 [5]: > 10 µM | viability, T/C [6]: 123% | viability, T/C [7]: 101% | viability, T/C [8]: 102% | viability, T/C [9]: 105% | viability, T/C [10]: 94.5% | viability, T/C [11]: 103% | viability, T/C [12]: 113% | viability, T/C [13]: 92.5% | viability, T/C [14]: 115% | viability, T/C [15]: 97.5% | viability, T/C [16]: 110% | viability, T/C [17]: 113% | viability, T/C [18]: 102% | viability, T/C [19]: 116% | viability, T/C [20]: 117% | viability, T/C [21]: 95.1% | viability, T/C [22]: 114% | viability, T/C [23]: 107% | viability, T/C [24]: 110% | viability, T/C [25]: 103% | viability, T/C [26]: 105% | viability, T/C [27]: 102% | viability, T/C [28]: 103% | viability, T/C [29]: 108% | viability, T/C [30]: 108% | viability, T/C [31]: 121% | viability, T/C [32]: 101% | viability, T/C [33]: 94.9% | viability, T/C [34]: 113% | viability, T/C [35]: 106%
